Some test systems named below: Bacillus megaterium Bm11; Escherichia coli ML-35; Escherichia coli; Proteus mirabilis; Staphylococcus aureus; Escherichia coli 363; Escherichia coli B; Pseudomonas aeruginosa; Klebsiella pneumoniae; Salmonella typhimurium; Streptococcus mutans.
Holding throughout (assay): ≥ marks a high value that may be exact or a test limit, other limits are often not marked, values filed in µg/mL are converted to µM
Assay [1] concerns Pseudomonas aeruginosa ATCC 27853.
For assay [2], the system named is Staphylococcus aureus ATCC 25923.
In assay [3] the test system is Staphylococcus aureus ATCC 33591.
In assay [4] the test system is Staphylococcus epidermidis ATCC 35984.
In assay [5] the test system is Salmonella enterica subsp. enterica serovar Typhimurium ATCC 14028.
Assay [6] concerns Escherichia coli DH5alpha.
For assay [7], the system named is Micrococcus luteus ATCC 9341.
Assay [8] concerns Candida albicans TIMM 1768.
The subject of assay [9] is Saccharomyces cerevisiae KCTC 7296.
Assay [10] relates to Trichosporon beigelii KCTC 7707.
Assay [11] concerns Candida albicans ATCC 24433.
The subject of assay [12] is Candida parapsilosis ATCC 22019.

In brackets after ≈: the same amount, converted by molar mass.

For the compound `CC[C@H](C)[C@H](NC(=O)[C@H](CCCCN)NC(=O)[C@@H](NC(=O)[C@H](Cc1ccccc1)NC(=O)[C@H](C)NC(=O)[C@H](CCCCN)NC(=O)CNC(=O)[C@H](Cc1ccccc1)NC(=O)[C@H](CCCCN)NC(=O)[C@H](CCCCN)NC(=O)[C@H](C)NC(=O)[C@H](CCCCN)NC(=O)[C@H](CCCCN)NC(=O)[C@H](CC(C)C)NC(=O)[C@@H](N)Cc1ccccc1)C(C)C)C(=O)N[C@@H](CC(C)C)C(=O)N[C@@H](CCCCN)C(N)=O` [FLKKAKKFGKAFVKILK], the MIC is 1 µM (≈ 2 µg/mL) in assay [1], 45.4 µM (≈ 90.5 µg/mL) in assay [2], not below 128 µM in assay [3] and 1.42 µM (≈ 2.83 µg/mL) in assay [4].

In the case of `CC[C@H](C)[C@H](NC(=O)[C@H](CCCCN)NC(=O)[C@H](CCCCN)NC(=O)[C@H](Cc1ccccc1)NC(=O)[C@H](CCCCN)NC(=O)[C@H](CCC(=O)O)NC(=O)CNC(=O)[C@@H](NC(=O)[C@H](CCCCN)NC(=O)[C@H](CCCCN)NC(=O)[C@H](CC(C)C)NC(=O)[C@H](Cc1ccccc1)NC(=O)[C@H](CC(=O)O)NC(=O)[C@H](CCCNC(=N)N)NC(=O)[C@H](CC(C)C)NC(=O)[C@H](CCCNC(=N)N)NC(=O)[C@H](CCCNC(=N)N)NC(=O)[C@H](CC(C)C)NC(=O)[C@H](CC(C)C)NC(=O)CN)[C@@H](C)CC)C(=O)NCC(=O)N[C@H](C=O)Cc1ccc(O)cc1` [GLLRRLRDFLKKIGEKFKKIGY], the MIC in the assay on Bacillus megaterium Bm11 is 1 µM (≈ 2.66 µg/mL); against Escherichia coli ML-35, 4 µM (≈ 10.7 µg/mL); against Escherichia coli, 4 µM (≈ 10.7 µg/mL); with Proteus mirabilis, not below 32 µM; in [5], 4 µM (≈ 10.7 µg/mL); in [2] it was 4 µM (≈ 10.7 µg/mL). This compound yielded an MIC against Staphylococcus aureus of 2 µM (≈ 5.33 µg/mL).

Regarding `CC[C@H](C)[C@H](NC(=O)[C@H](CCCCN)NC(=O)[C@H](CO)NC(=O)[C@H](Cc1c[nH]c2ccccc12)NC(=O)[C@H](CC(C)C)NC(=O)CN)C(=O)N[C@@H](CCCCN)C(=O)N[C@@H](CCC(=O)O)C(=O)N[C@H](C(=O)NCC(=O)N[C@@H](CCCCN)C(=O)N[C@@H](CCC(=O)O)C(=O)N[C@@H](C)C(=O)N[C@@H](C)C(=O)N[C@@H](CCCCN)C(=O)N[C@@H](C)C(=O)N[C@@H](C)C(=O)N[C@@H](C)C(=O)N[C@@H](CCCCN)C(=O)N[C@@H](C)C(=O)N[C@@H](C)C(=O)NCC(=O)N[C@@H](CCCCN)C(N)=O)C(C)C` [GLWSKIKEVGKEAAKAAAKAAGK], the MIC in the assay with Escherichia coli 363 was 25 µM (≈ 57.8 µg/mL); in the assay on Escherichia coli B it was not below 50 µM; in the assay with Pseudomonas aeruginosa, 100 µM (≈ 231 µg/mL); in the assay on Staphylococcus aureus, more than 100 µM.

For `CC[C@H](C)[C@H](N)C(=O)N[C@@H](CC(C)C)C(=O)N[C@@H](C)C(=O)N[C@@H](Cc1c[nH]c2ccccc12)C(=O)N[C@@H](CCCCN)C(=O)N[C@@H](Cc1c[nH]c2ccccc12)C(=O)N1CCC[C@H]1C(=O)N[C@@H](Cc1c[nH]c2ccccc12)C(=O)N[C@@H](Cc1c[nH]c2ccccc12)C(=O)N1CCC[C@H]1C(=O)N[C@@H](Cc1c[nH]c2ccccc12)C(=O)N[C@@H](CCCN=C(N)N)C(=O)N[C@@H](CCCN=C(N)N)C(N)=O` [ILAWKWPWWPWRR], the MIC in assay [6] is not below 35 µM; against Klebsiella pneumoniae it was 35 µM (≈ 65.8 µg/mL); in [7] it was 0.4 µM (≈ 0.752 µg/mL); in the assay with Pseudomonas aeruginosa, 50 µM (≈ 94 µg/mL); against Salmonella typhimurium, not below 50 µM.

As to `CC[C@H](C)[C@H](NC(=O)[C@H](CCCCN)NC(=O)[C@@H](NC(=O)[C@H](Cc1ccccc1)NC(=O)[C@H](C)NC(=O)[C@H](CCCCN)NC(=O)CNC(=O)[C@H](Cc1ccccc1)NC(=O)[C@H](CCCCN)NC(=O)[C@H](CCCCN)NC(=O)[C@H](C)NC(=O)[C@@H](N)CCCCN)C(C)C)C(N)=O` [KAKKFGKAFVKI], the MIC was 66.3 µM (≈ 90.4 µg/mL) in assay [1], more than 375 µM in assay [2], not below 375 µM in assay [3] and not below 133 µM in assay [4].

Compound `CC[C@H](C)[C@H](NC(=O)[C@H](CCC(N)=O)NC(=O)[C@H](CCCCN)NC(=O)[C@H](Cc1ccccc1)NC(=O)[C@@H](NC(=O)[C@H](CCC(N)=O)NC(=O)[C@H](CC(C)C)NC(=O)[C@H](CC(C)C)NC(=O)[C@@H](N)CCCCN)[C@@H](C)O)C(=O)N[C@@H](Cc1ccccc1)C(=O)N[C@@H](CCCN=C(N)N)C(=O)O` [KLLQTFKQIFR] showed an MIC in the assay with Streptococcus mutans not below 176 µM.

As to `CC(C)C[C@H](NC(=O)[C@H](Cc1ccccc1)NC(=O)[C@H](Cc1cnc[nH]1)NC(=O)[C@H](Cc1ccc(O)cc1)NC(=O)[C@@H](N)CC(C)C)C(=O)N[C@@H](Cc1cnc[nH]1)C(=O)N[C@@H](Cc1c[nH]c2ccccc12)C(=O)N[C@@H](Cc1ccccc1)C(=O)N[C@@H](CCC(N)=O)C(=O)N[C@@H](CCCN=C(N)N)C(=O)N[C@@H](Cc1ccccc1)C(N)=O` [LYHFLHWFQRF], in the assay on Streptococcus mutans, the MIC was not below 78.4 µM.

Take `CC[C@H](C)[C@H](NC(=O)[C@@H](NC(=O)[C@@H](N)CCCN=C(N)N)[C@@H](C)CC)C(=O)N[C@@H](CC(=O)O)C(=O)N[C@@H](CC(C)C)C(=O)N[C@@H](CC(C)C)C(=O)N[C@@H](Cc1c[nH]c2ccccc12)C(=O)N[C@@H](CCCN=C(N)N)C(=O)N[C@H](C(=O)N[C@@H](CCCN=C(N)N)C(=O)N[C@@H](CCCN=C(N)N)C(=O)N1CCC[C@H]1C(=O)N[C@@H](Cc1c[nH]c2ccccc12)C(=O)N[C@@H](Cc1c[nH]c2ccccc12)C(=O)N1CCC[C@H]1C(=O)N[C@@H](CCCCN)C(=O)N[C@@H](Cc1ccccc1)C(=O)N[C@H](C(=O)N[C@H](C(=O)N[C@H](C(=O)N[C@@H](Cc1c[nH]c2ccccc12)C(=O)N[C@H](C(=O)N[C@@H](CCCN=C(N)N)C(N)=O)C(C)C)C(C)C)[C@@H](C)O)C(C)C)C(C)C` [RIIDLLWRVRRPWWPKFVTVWVR]: the MIC in [8] amounted to 10 µM (≈ 30.8 µg/mL); in [9] it was 14.1 µM (≈ 43.5 µg/mL); in assay [10] it was 20 µM (≈ 61.6 µg/mL).

As to `CC[C@H](C)[C@H](NC(=O)[C@@H](NC(=O)[C@@H](N)CCCN=C(N)N)[C@@H](C)CC)C(=O)N[C@@H](CC(=O)O)C(=O)N[C@@H](CC(C)C)C(=O)N[C@@H](CC(C)C)C(=O)N[C@@H](Cc1c[nH]c2ccccc12)C(=O)N[C@@H](CCCN=C(N)N)C(=O)N[C@H](C(=O)N[C@@H](Cc1c[nH]c2ccccc12)C(=O)N[C@@H](CCCN=C(N)N)C(=O)N1CCC[C@H]1C(=O)N[C@@H](CCC(N)=O)C(=O)N[C@@H](CCCCN)C(=O)N1CCC[C@H]1C(=O)N[C@@H](CCCCN)C(=O)N[C@@H](Cc1ccccc1)C(=O)N[C@H](C(=O)N[C@H](C(=O)N[C@H](C(=O)N[C@@H](Cc1c[nH]c2ccccc12)C(=O)N[C@H](C(=O)N[C@@H](CCCN=C(N)N)C(N)=O)C(C)C)C(C)C)[C@@H](C)O)C(C)C)C(C)C` [RIIDLLWRVWRPQKPKFVTVWVR], the results for the MIC in assay [8], in assay [9] and in assay [10] were 20 µM (≈ 59.8 µg/mL), 10 µM (≈ 29.9 µg/mL) and 10 µM (≈ 29.9 µg/mL), respectively.

With `CC(C)C[C@H](NC(=O)[C@H](CCCN=C(N)N)NC(=O)[C@H](CCC(N)=O)NC(=O)[C@H](Cc1cnc[nH]1)NC(=O)[C@@H](NC(=O)[C@H](CCCCN)NC(=O)[C@H](CC(C)C)NC(=O)[C@H](CCC(=O)O)NC(=O)[C@H](CO)NC(=O)[C@H](CCCN=C(N)N)NC(=O)[C@@H](N)CO)C(C)C)C(=O)N[C@@H](Cc1ccccc1)C(N)=O` [SRSELKVHQRLF], the MIC in [11] and in [12] was not below 267 µM in each case.

Take `CC(C)C[C@H](NC(=O)[C@H](CCCN=C(N)N)NC(=O)[C@H](CCC(N)=O)NC(=O)[C@H](Cc1cnc[nH]1)NC(=O)[C@@H](NC(=O)[C@H](CCCN=C(N)N)NC(=O)[C@H](CC(C)C)NC(=O)[C@H](CCC(=O)O)NC(=O)[C@H](CO)NC(=O)[C@H](CCCN=C(N)N)NC(=O)[C@@H](N)CO)C(C)C)C(=O)N[C@@H](Cc1ccccc1)C(N)=O` [SRSELRVHQRLF]: the MIC in [11] and in assay [12] was not below 262 µM each time.

For orientation: MIC means the least concentration at which growth counts as inhibited. Read a low MIC as greater potency.

The record behind these values is DBAASP.
